Source: PMC10791743, “Selective CK1α degraders exert antiproliferative activity against a broad range of human cancer cell lines” (Nature Communications, 2024)
“And” between values parts separate entries of the source, which are not always exact repeats. Identical values can stand only once.

Assay: Plasma stability assay, mouse
Format: in vitro ADME
Details: for Calculated Concentration: 0h standards set to Actual Concentration 100, IS warfarin, replicates
Experimental: page 32: Aldrich, Saint Louis, MO) were diluted into 0.1 M potassium phosphate buffer (PBS, pH 7.4, KH2PO4, Cat. No: P284-500; K2HPO4, Cat. No: BP363-500, Fisher Scientific, Fair Lawn, NJ) and mixed well. 40 μL of this solution was transferred into the above compounds plates. For the time 0 plate, 3 fold (v:v) cold acetonitrile with warfarin (400 ng/mL) as the internal standard was added to […] and B in PBS, pH 7.4) and no incubation. For the other five time points’ plates, 10 μL NADPH regenerating agent mixer was added to each well to initiate the reaction, the plate was sealed and incubated at 37° C on an orbital shaker (100 rpm) for the required time, followed by quenching of the reaction by adding 3-fold volume of cold acetonitrile with internal standard to each well. The final concentration of each component applied in this reaction was liver microsome protein at 0.5 […] After quenching, all plates were securely sealed and thoroughly mixed at 600 rpm for 10 minutes. Subsequently, centrifugation was performed at 4000 rpm for 20 minutes. The resulting supernatants […] analysis using UPLC–MS/MS. The assessment of metabolic stability involved determining the half- life through a least-squares fit of multiple time points, employing first-order kinetics. Plasma stability assay5: The degradation of human or mouse plasma was assessed by monitoring the gradual reduction of the parent compound over specified time intervals (0, 3, 24, and 48 hours). Human and mouse plasma samples were sourced from GeneTex (Irvine, CA). Test compound stock solutions, prepared at 10 mM in DMSO, were dispensed into triplicate wells of a 96-well microplate using the Labcyte Echo 650 dispenser. For plates, excluding the time 0-hour plate, plasma was […] The plate was sealed, incubated at 37°C on an orbital shaker (100 rpm) for the required duration, and then quenched with cold acetonitrile, incorporating warfarin as the internal standard. In the case of the time 0-hour plate, cold acetonitrile with the internal standard was added to each well before introducing plasma, eliminating page 33: the need for further incubation. Following quenching, all plates were thoroughly mixed at 600 rpm for 10 minutes and centrifuged at 4000 rpm for 20 minutes. Supernatants were transferred to […] MS/MS analysis. Plasma stability was evaluated by determining the half-life through a least-squares fit of multiple time points based on first-order kinetics. Plasma protein binding assay: Test compound stock solutions were prepared at a concentration of 10 mM in DMSO. A Single-Use RED (Rapid Equilibrium Dialysis) device was acquired from Thermo Scientific (Cat. No: 99006, Rockford, IL). The sample preparation for plasma protein binding followed a modified version of Waters' method6. After thawing, plasma was centrifuged at 1000 rpm for 10 minutes to eliminate any particulates. Each compound was then prepared at a concentration of 10 µM in either human or mouse plasma. In the plasma protein binding assessment, 300 µL of spiked plasma solutions were introduced into the sample chamber (indicated by the red ring), while 550 µL of DPBS was added to the adjacent chamber. The plate was sealed and incubated at 37°C on an orbital shaker (100 rpm) for 4 hours. Post -incubation, 50 µL aliquots were withdrawn from each side of the insert and dispensed into a 96 -well storage plate. To create analytically identical sample matrices (matrix matching), an equivalent volume of blank plasma or DPBS was added to the necessary wells, followed by quenching w ith 3-fold (v:v) cold acetonitrile containing warfarin as the internal standard. Subsequently, the sealed plates were well -mixed at 600 rpm for 10 minutes and then centrifuged at 4000 rpm for 20 minutes. Supernatants were transferred to analytical […] Test compound concentrations were quantified in both the buffer and plasma chambers by determining peak areas relative to the internal standard. […]

[1] = mouse plasma, regression of log concentration over time points 0, 3, 24, 48 h

## O=C1CCC(N2Cc3cc(Nc4noc5ccccc45)ccc3C2=O)C(=O)N1 (stereo not drawn) [SJ3149]
mouse
  Plasma stability: > 10 h

## O=C1CCC(N2Cc3cc(Nc4noc5ccccc45)ccc3C2=O)C(=O)N1 (stereo not drawn) [SJ001043149-1]
Mouse plasma, time point 3h
  Calculated Concentration: 89.527 and 94.878 and 96.383
Mouse plasma, time point 24h
  Calculated Concentration: 48.667 and 48.995 and 51.103
Mouse plasma, time point 48h
  Calculated Concentration: 26.458 and 25.987 and 26.969
[1]
  Ke: 0.028
  t(1/2): 24.7479
